Data: patent US20240253023A1, “PERFLUORINATED AMIDE SALTS AND THEIR USES AS IONIC CONDUCTING MATERIALS” (priority 1996, published 2024)
Counter-ions that a name gives are not always drawn.

Tests used:
[1] = ionic conductivity of salts and polyelectrolytes in polymer, liquid, gel or molten media; assay type: physicochemical
[2] = solubility in organic solvents and polymers; settings: for solubility in organic solvents: organic solvents (tetrahydrofurane, acetonitrile, dimethylformamide, ethyl acetate, glymes ...), mostly also in aprotic solvating or polar polymers
[3] = cationic transport number of electrolytes; assay type: physicochemical; settings: in poly (ethylene oxide)
[4] = oxidation potential towards a lithium anode; assay type: physicochemical
[5] = acid form; cited from earlier work
[6] = reversible redox potential in poly (ethylene oxide) on a platinum electrode, towards a lithium electrode; assay type: physicochemical; settings: platinum electrode 125 μm
Experimental: These salts have a reversible redox couple. In poly (ethylene oxide) a reversible potential≈3.4 V towards a lithium electrode was determined on a platinum electrode having a diameter of 125 μm.
This salt has two reversible redox couples. In poly (ethylene oxide), on a platinum electrode of a diameter of 125 μm, it was shown that there is a first redox couple having a potential≈3.2 V and a second redox couple having a potential≈3.8 V, these potentials being measured towards a lithium electrode.

[7] = in poly (ethylene oxide), O/Li 12/1, 60° C.

For `O=S(=O)(CC(F)(F)F)[N-]S(=O)(=O)C(F)(F)F.[Li+]` [Example 9, lithium salt of trifluoromethanesulfonyl(2,2,2-trifluoroethane-sulfonyl) imide], which conductivity [1, 7] is on record?
The conductivity was 2.3×10^−4 S·cm^−1.

With `O=S(=O)(CCc1c2ccccc2cc2ccccc12)[N-]S(=O)(=O)C(F)(F)F.[K+]` [Example 56, potassium salt of trifluoromethanesulfonyl(anthracenyl-9-ethanesulfonyl)imide] as the compound, how does the “solubility in organic solvents” value [2] read?
The value was “soluble in most usual organic solvents”.

For `CCN(CC)S(=O)(=O)[N-]S(=O)(=O)C(F)(F)F.CCN(CC)S(=O)(=O)[N-]S(=O)(=O)C(F)(F)F.CCN(CC)S(=O)(=O)[N-]S(=O)(=O)C(F)(F)F.[Yb+3]` [Yb(DETFSI)3, ytterbium salt of diethylaminosulfonyl(trifluoromethanesulfonyl)imide], which solubility in dichloromethane ([2]; dichloromethane) is on record?
The solubility in dichloromethane was “good solubility in dichloromethane”.

With `CN(C)S(=O)(=O)[N-]S(=O)(=O)C(F)(F)F.[K+]` [potassium salt of trifluoromethanesulfonyl-(dimethylaminosulfonyl)irnide] as the compound, how does the conductivity ([1]; in poly (ethylene oxide), O/K=12/1, 60° C.) read?
The conductivity was 5.10^−4 S·cm^−1.

Which cationic transport number ([3]; O/Li=16/1) does the source give for `CCCCCCCCCCCCS(=O)(=O)[N-]S(=O)(=O)C(F)(F)F.[Li+]` [lithium salt of trifluoromethanesulfonyl(dodecylsulfonyl)imide] here?
Its cationic transport number is “about 0.55”.

Which “solubility in organic solvents” value [2] does the source give for `CN(C)S(=O)(=O)[N-]S(=O)(=O)C(F)(F)F.CN(C)S(=O)(=O)[N-]S(=O)(=O)C(F)(F)F.CN(C)S(=O)(=O)[N-]S(=O)(=O)C(F)(F)F.[La+3]` [Example 30, lanthanum salt of trifluoromethanesulfonyl(dimethylaminosulfonyl)-imide] here?
The value was “highly soluble in the usual organic solvents”.

For `O=S(=O)([N-]S(=O)(=O)C(F)(F)F)c1nnc(C(F)(F)F)s1.[Li+]` [Example 35, lithium salt of trifluoromethanesulfonyl(5-trifluoromethyl-1,3,4-thiadiazole-5-sulfonyl)imide], which oxidation potential ([4]; 0.5 M in acetonitrile) is on record?
The oxidation potential was “higher than 4.5 V”.

What about the “solubility in organic solvents” value [2] of the same compound?
The value was “soluble in most usual organic solvents”.

For `CCCCC(CC)CN(CC(CC)CCCC)S(=O)(=O)[N-]S(=O)(=O)C(F)(F)F.CCN1C(=CC=CC=CC=Cc2sc3ccccc3[n+]2CC)Sc2ccccc21` [3,3′-diethylthiatricarbocyanine of di-2-ethylhexylaminosulfonyl(trifluoro-methanesulfonyl)imide], which “solubility in low polar solvents” value ([2]; dichloromethane or methylene chloride, polymer matrices with low polarity such as methyl polymethacrylate) is on record?
The value was “very soluble in low polar solvents”.

For “potassium salt of N,N′,N″,N′″-perfluorobutanesulfonyl-Nickel(II) phtalocyaninetetrasulfonamide [Example 57]”, which “solubility in organic solvents” value [2] is on record?
The value was “soluble in most usual organic solvents”.

With `O=S(=O)(NS(=O)(=O)C(F)(F)F)C(F)(F)F` [H[CF3SO2—N—SO2CF3]] as the compound, how does the pKa [5] read?
Its pKa is 1.95.

For `O=S(=O)(Nc1nnc(C(F)(F)F)s1)C(F)(F)F` [Example 34, trifluoromethanesulfonyl(5-trifluoromethyl-1,3,4 thiadiazole)amide], which oxidation potential ([4]; 1 M in ethylene carbonate and dimethylcarbonate (2:1)) is on record?
Its oxidation potential is “higher than 4 V”.

And the “solubility in organic solvents” value [2]?
Its value is “soluble in most usual organic solvents”.

For “N-trifluoromethanesulfonyl-2-aminoacridine tetraethylammonium [Example 54]”, which “solubility in organic solvents” value [2] is on record?
Its value is “soluble in most usual organic solvents”.

For `CN(C)c1cccc2c(S(=O)(=O)[N-]S(=O)(=O)C(F)(F)F)cccc12.[K+]` [Example 53, potassium trifluoromethane-sulfonyl(5-dimethylamino-1-naphthalenesulfonyl)imide], which “solubility in organic solvents” value [2] is on record?
The value was “soluble in most polar organic solvents”.

With `O=S(=O)(NS(=O)(=O)C(F)(F)F)OC(C(F)(F)F)C(F)(F)F` [Example 37 molten salt, trifluoromethanesulfonyl(1,1,1,3,3,3-hexafluoro-2-propanoxysulfonyl)imide 1-ethyl-3-methyl-1H-imidazolium] as the compound, how does the conductivity ([1]; neat molten salt, temperature not stated) read?
Its conductivity is 3.91×10^−3 S·cm^−1.

Which conductivity [1, 7] does the source give for `CN(C)S(=O)(=O)[N-]S(=O)(=O)C(F)(F)F.[Li+]` [lithium salt of trifluoromethanesulfonyl-(dimethylaminosulfonyl)imide] here?
The conductivity was 1.2×10^−4 S·cm^−1.

With “di-lithium salt of 9-10-(propylsulfonamide-N-trifluoromethanesulfonyl)phenazine [Example 61]” as the compound, how does the “potential of first redox couple” value [6] read?
Its value is “≈ 3.2 V”.

And the “potential of second redox couple” value [6]?
Its value is “≈ 3.8 V”.

Which conductivity ([1]; in poly (ethylene oxide), O/Li=12/1, temperature not stated) does the source give for `CCCN(CCC)S(=O)(=O)[N-]S(=O)(=O)C(F)(F)F.[Li+]` [lithium salt of trifluoromethanesulfonyl(dipropylaminosulfonyl)-imide] here?
The conductivity was 1.4×10^−4 S·cm^−1.

And the cationic transport number ([3]; O/Li=12/1)?
The cationic transport number was 0.42.
